Measurements reported in patent publication US7964629B2, “Inhibitors of isoprenylcysteine carboxyl methyltransferase” (Duke Universtiy, priority 2005, dated 2011).
Read-outs that look alike come from different tables or passages of the source.

How the values were obtained:
recombinant human Icmt = molecular target: T1, recombinant human Icmt (Homo sapiens, UniProt O60725); assay: Icmt assay: [3H]methyl incorporation from [3H]AdoMet into BFC; format: biochemical
T1 construct: recombinant baculovirus containing the entire open reading frame of the human Icmt cDNA; made in house; host or cells: Sf9 insect cells (baculovirus); membrane fraction used

GGTase-I = GGTase-I (Homo sapiens, UniProt P49354+P53609); assay: GGTase-I inhibition (results not shown); format: biochemical; conditions: concentrations up to 50 μM
[1] = molecular target: SssI DNA methyltransferase (Spiroplasma monobiae, UniProt P15840); assay: AdoMet-dependent DNA methyltransferase inhibition (results not shown); format: biochemical; conditions: concentrations up to 50 μM
[2] = test system: Icmt−/− mouse embryonic fibroblasts; assay: Cell growth determination, Icmt-deficient fibroblasts; format: cell-based; conditions: 15, 20, 30 μM; 10% serum; six days
Description: (§1) FIGS. 2A-2C. […] Media and drug were replaced daily, and cell growth was monitored for six days. Data represent the mean and standard deviation of four replicate wells. (FIG. 2A) Icmt^+/+ cells; (FIG. 2B) Icmt^−/− cells; (C) Icmt^−/− cells stably transfected with a gene expressing human ICMT (Icmt^−/−/ICMT cells).
(§2) Cell growth assays were performed in a 96-well plate format. Briefly, 500 to 1000 cells were plated into 96-well plates. After the cells were allowed to attach for 24 h, media was removed and replaced with media containing either compound or vehicle. Media and drug were replaced every 24 h throughout the assay. Cell determinations were made at the times indicated in the respective figure by adding 19 μl of CellTiter 96 AqueousOne solution to each well followed by incubation of the plates in the dark at 37° C. for two hr after which the absorbance at 490 nm was read. Background absorbance from blank wells containing only media with compound or vehicle was subtracted from each test well. Typically, 3-6 replicate wells were employed for each point in each assay.

Icmt−/−/ICMT cells = assay: Cell growth determination, Icmt−/− cells expressing human ICMT; format: cell-based, mouse; conditions: 15, 20, 30 μM; 10% serum; six days
Description: as §1, §2

[3] = test system: p42/44 MAPK phosphorylation in DKOB8 cells expressing GFP-Icmt; assay: EGF-stimulated MAPK activation in Icmt-overexpressing cells; format: cell-based; conditions: 5 μM, three days, reduced-serum media; Icmt activity elevated 4-fold
Description: (§3) FIGS. 4A-4C. Overexpression of Icmt rescues EGF-stimulated MAPK activation and anchorage-independent growth in cysmethynil-treated cells. FIG. 4A. Creation of cell lines stably overexpressing Icmt. DKOB8 cells were engineered to stably express either GFP alone or a GFP-Icmt fusion protein. Membrane fractions from GFP and GFP-ICMT expressing lines were assayed for Icmt activity using the BFC assay. FIG. 4B. Overexpression of Icmt restores EGF-stimulated MAPK activation in cysmethynil-treated cells. […] Where indicated, cells were treated with EGF for the final 10 min prior to harvesting. Cell lysates containing equal amounts of protein were resolved on a 13% SDS-polyacrylamide gel and probed with antiphospho-p42/44 MAPK or, as a control, antiphospho NFκB antibody as indicated. FIG. 4C. […] After 3 weeks of growth, colonies were stained with MTT and imaged.
Half of the wells were then treated with EGF (10 ng/ml) and half with vehicle for 10 min. Cells were rinsed with PBS and harvested in SDS-PAGE loading buffer. Total cell lysates (30 μg protein) were resolved on 4-20% Tris-glycine polyacrylamide gels (Invitrogen). Proteins were transferred to nitrocellulose and probed with a mix of anti-phospho-Akt and anti-phospho-p42/44 MAPK antibodies, or with anti-tubulin or anti-phospho NFκB antibody (Cell Signaling Technology) as indicated. […]

[4] = test system: DKOB8/GFP colon cancer cells; assay: Soft agar growth assay, DKOB8/GFP; format: cell-based; conditions: three weeks
Description: as §3, with “imaged. Soft agar culture media was prepared with 10% FBS in 1× minimum essential medium (MEM) alpha. […] Cells were harvested by trypsinization at ˜80% confluence, mixed into top agar (10,000 cells/plate; 0.3% noble agar in soft agar culture media) and poured onto prepared plates. […] For each condition, triplicate samples (each consisting of three plates) were prepared. […]” for “imaged.”

[5] = test system: DKOB8/GFP-Icmt colon cancer cells; assay: Soft agar growth assay, DKOB8/GFP-Icmt; format: cell-based; conditions: 20 μM, three weeks; elevated Icmt activity
Description: as §3, with “imaged. Soft agar culture media was prepared with 10% FBS in 1× minimum essential medium (MEM) alpha. […] Cells were harvested by trypsinization at ˜80% confluence, mixed into top agar (10,000 cells/plate; 0.3% noble agar in soft agar culture media) and poured onto prepared plates. […] For each condition, triplicate samples (each consisting of three plates) were prepared. […]” for “imaged.”

[6] = test system: Rac1 in MDA-MB-231 breast cancer cells; assay: Immunoblot of steady-state Rac level; format: cell-based; conditions: 20 μM, 6 day treatment
Description: (§4) The impact of Icmt inhibition on function of the geranylgeranylated GTPases Rho and Rac in cells has been examined. This study was carried out in MD-MBA-231 breast cancer cells. Tumorigenesis and metastatic behavior of these cells is dependent on high levels of Rho GTPases in particular. […] Cells were harvested and lysates containing equal amounts of protein were resolved by SDS-PAGE and subjected to immunoblot analysis with specific antibodies to RhoA (FIG. 7A), or Rac1 (FIG. 7B). As a control, immunoblot analysis for α-tubulin was carried out on all samples.

[7] = test system: α-tubulin in MDA-MB-231 breast cancer cells; assay: Immunoblot of control protein α-tubulin; format: cell-based; conditions: 20 μM, 6 day treatment
Description: as §4

T1 sequence (O60725 whole entry): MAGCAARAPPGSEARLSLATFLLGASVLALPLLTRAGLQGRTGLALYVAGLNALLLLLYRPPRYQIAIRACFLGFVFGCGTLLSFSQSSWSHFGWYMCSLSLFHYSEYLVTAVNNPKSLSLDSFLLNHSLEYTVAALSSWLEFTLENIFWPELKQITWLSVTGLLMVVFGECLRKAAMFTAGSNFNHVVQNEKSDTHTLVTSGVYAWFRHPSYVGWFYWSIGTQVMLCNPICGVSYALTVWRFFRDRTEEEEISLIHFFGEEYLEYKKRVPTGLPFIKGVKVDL
Chain of SssI DNA methyltransferase (P15840 whole entry): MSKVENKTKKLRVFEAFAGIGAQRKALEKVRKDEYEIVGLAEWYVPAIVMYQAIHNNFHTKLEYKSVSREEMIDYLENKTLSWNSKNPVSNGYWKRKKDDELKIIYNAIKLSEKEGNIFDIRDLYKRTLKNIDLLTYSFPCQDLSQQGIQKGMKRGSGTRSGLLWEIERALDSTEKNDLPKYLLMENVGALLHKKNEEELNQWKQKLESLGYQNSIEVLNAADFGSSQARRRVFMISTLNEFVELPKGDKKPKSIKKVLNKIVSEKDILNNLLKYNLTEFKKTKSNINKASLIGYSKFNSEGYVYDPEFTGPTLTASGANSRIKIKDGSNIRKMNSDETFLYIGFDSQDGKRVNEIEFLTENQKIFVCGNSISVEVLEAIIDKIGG

In the case of `CCCCCCCCn1cc(CC(N)=O)c2cc(-c3cccc(C)c3)ccc21` [cysmethynil, 2-[5-(3-methylphenyl)-1-octyl-1H-indol-3-yl]acetamide], the IC50 (recombinant human Icmt; BFC substrate, substrates and inhibitor premixed, reaction initiated by addition of enzyme, read-out: IC50 for Icmt inhibition) is reported as 2400 nM, the IC50 (recombinant human Icmt; Table 1, R1 substituent x scaffold matrix, read-out: IC50) is reported as 2100 ± 900 nM and the IC50 (recombinant human Icmt; Table 3, pre-incubation with Icmt for 30 min at 37° C., read-out: IC50 PI (converted)) is reported as 290 nM. For the same compound, the IC50 (recombinant human Icmt; Table 3, without pre-incubation of the enzyme with the compound, read-out: IC50 No PI) was 2100 ± 900 nM, the IC50 (recombinant human Icmt; enzyme premixed with inhibitor and AdoMet for 15 min prior to initiation with BFC, read-out: IC50 for Icmt inhibition) was < 200 nM and the “inhibition of GGTase-I” value (GGTase-I) was “did not inhibit”. For the same compound, the “inhibition of SssI DNA methyltransferase” value [1] was “nor did it inhibit”, the cell growth [2] was “largely unaffected” and the cell growth (Icmt−/−/ICMT cells) was “regained sensitivity”. The “blockade of EGF-stimulated MAPK activation” value [3] was “protect the cells from cysmethynil blockade”, the “ability of cells to form colonies in soft agar” value ([4]; 20 μM) was “dramatically reducing the ability of cells to form colonies” and the “ability to grow in soft agar” value ([4]; 10 or 20 μM) was “significantly impaired”. For the same compound, the “ability of cells to form colonies in soft agar” value [5] was “rescue the ability of the cells to form colonies”, the Rac levels reduced [6] was > 80% and the “level of control protein α-tubulin” value [7] was “only marginally affected”.
